The source of these data is patent US8748467B2, “Topical formulation” (Bayer Intellectual Property GmbH, priority 2007, dated 2014).

The structures appear in SMILES notation.

For series [1] the following is noted: in vivo.
Protocol: They received standard oral carbimazole (Neomercazole, AFT Pharmaceuticals Ltd) tablets 5 mg administered twice daily for a week, followed by a test formulation of transdermal carbimazole (Test Formulation 1, Table 1, Example 2, below) 10 mg administered twice daily for a week, followed by Hoffman's (2002) transdermal formulation of carbimazole in poloxamer lecithin organogel (PLO), 10 mg administered twice daily for a week. At least a fortnight was allowed between treatments.
The next series has as its system total thyroxine (tT4). The experiment in a line: Total thyroxine (tT4) assays before and after each week's treatment (Example 1). The settings on record: cats; twice daily for a week. The series is classed as in vivo. An excerpt:
At least a fortnight was allowed between treatments.

The conditions of series [2]: Hoffman et al, 2002; cited from earlier work.

For `CCOC(=O)n1ccn(C)c1=S` [carbimazole], the “plasma methimazole levels relative to the published therapeutic range” value in series [1] is on record as “in the published therapeutic range”. The “tT4 concentrations over the seven days of the trial period” value with total thyroxine (tT4) is “approximately halved”. Take `Cn1cc[nH]c1=S` [methimazole]: the “published plasma levels with methimazole” value in series [2] is 0.51 ± 0.15 µg/mL.
